Literature values in paper PMC7321301, “Characteristics of New Peptides GQLGEHGGAGMG, GEHGGAGMGGGQFQPV, EQGFLPGPEESGR, RLARAGLAQ, YGNPVGGVGH, and GNPVGGVGHGTTGT as Inhibitors of Enzymes Involved in Metabolic Syndrome and Antimicrobial Potential” (Molecules, 2020).
Where two headings read alike, the source gives them in different places. No end group written: not given here.

Experiments:
ACE = settings: cited from earlier work
α-amylase = settings: no reference given; cited from earlier work

C[C@H](CS)C(=O)N1CCC[C@H]1C(=O)O [Captropril]
type of ACE inhibition (ACE): competitive inhibitor

C[C@H]1O[C@H](O[C@H]2[C@H](O)[C@@H](O)[C@@H](O[C@H]3[C@H](O)[C@@H](O)C(O)O[C@@H]3CO)O[C@@H]2CO)[C@H](O)[C@@H](O)[C@@H]1N[C@H]1C=C(CO)[C@@H](O)[C@H](O)[C@H]1O (stereo partly shown) [acarbose]
type of α-amylase inhibition (α-amylase): competitive inhibition

AFKDEDTEEVPFR
ACE inhibitory IC50 (ACE): 127 µg/mL

GKHVAVHAR [GHA-8]
ACE inhibitory activity (ACE): exhibited ACE inhibitory activity

GKPVAVPA [GA-8]
ACE inhibitory activity (ACE): exhibited ACE inhibitory activity

TTFHTSGY
type of ACE inhibition (ACE; inhibition kinetic analysis): competitive inhibitor

Thα1: peptide Thα1, ACE inhibitory, from another study (SDAAVDTSSEITTKDLKEKKEVVEEAEN; ends and bridges not checked; UniProt P06454 2-29, looked up)
ACE inhibitory IC50 (ACE): 2.5 µg/mL
